Laboratory results published in the supplement of paper PMC10627819.

Test system: S. aureus DSM 20231
Assay: Bliss interaction score (quartile over a dose matrix) (fitness difference); higher = more antagonism (negative = synergy)
Details: not given
How it was run: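 Growth was read as OD595 when cultures entered stationary phase, and each value was divided by the plate's robust no-drug mean and capped at 1. This normalised ratio is the fitness value, and fitness for each single drug came from the combination data. The Bliss score subtracts the expected fitness, taken as the product, from the observed fitness and is given as quartiles across technical, biological and donor/recipient replicates.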
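Also: first quartile when negative (synergy) and third quartile when positive (antagonism).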

| SMILES | Bliss interaction score |
| --- | --- |
| COCCOC(=O)C1=C(C)NC(C)=C(C(=O)OC/C=C/c2ccccc2)C1c1cccc([N+](=O)[O-])c1 (configuration not stated) [Cilnidipine] + C[C@H]1c2cccc(O)c2C(=O)C2=C(O)[C@]3(O)C(=O)C(C(N)=O)=C(O)[C@@H](N(C)C)[C@@H]3[C@@H](O)[C@@H]21 [Doxycycline] | -0.272 |
| Cc1ncc([N+](=O)[O-])n1CCO [Metronidazole] + CCCSc1nc(N[C@@H]2C[C@H]2c2ccc(F)c(F)c2)c2nnn([C@@H]3C[C@H](OCCO)[C@@H](O)[C@H]3O)c2n1 [Ticagrelor] | 0.152 |
| CC(=O)Oc1ccccc1C(=O)O [Acetylsalicylicacid] + CCN(CC)C(=O)/C(C#N)=C/c1cc(O)c(O)c([N+](=O)[O-])c1 [Entacapone] | 0.143 |
| CO/N=C(\C(=O)N[C@@H]1C(=O)N2C(C(=O)O)=C(COC(C)=O)CS[C@H]12)c1csc(N)n1 [Cefotaxime] + O=c1[nH]cc(F)c(=O)[nH]1 [Fluorouracil] | -0.114 |
| COCCOC(=O)C1=C(C)NC(C)=C(C(=O)OC/C=C/c2ccccc2)C1c1cccc([N+](=O)[O-])c1 (configuration not stated) [Cilnidipine] + CO[C@@]12[C@H](COC(N)=O)C3=C(C(=O)C(C)=C(N)C3=O)N1C[C@@H]1N[C@@H]12 [MitomycinC] | -0.236 |
| Cn1c(=O)c2c(ncn2C)n(C)c1=O [Caffeine] + CC[C@H]1OC(=O)[C@H](C)C(=O)[C@H](C)[C@@H](O[C@@H]2O[C@H](C)C[C@H](N(C)C)[C@H]2O)[C@](C)(OC)C[C@@H](C)C(=O)[C@H](C)[C@H]2N(CCCCn3cnc(-c4cccnc4)c3)C(=O)O[C@]12C [Telithromycin] | -0.372 |
| CC(=O)Oc1ccccc1C(=O)O [Acetylsalicylicacid] + CC[C@H](c1ccc(O)cc1)[C@@H](CC)c1ccc(O)cc1 [Hexestrol] | -0.455 |
| CN(C)[C@@H]1C(O)=C(C(N)=O)C(=O)[C@@]2(O)C(O)=C3C(=O)c4c(O)ccc(Cl)c4[C@@](C)(O)[C@H]3C[C@@H]12 [Clortetracycline] + COc1ccc(CCN(C)CCCC(C#N)(c2ccc(OC)c(OC)c2)C(C)C)cc1OC [Verapamil] | 0.243 |
| C[C@H]1c2cccc(O)c2C(=O)C2=C(O)[C@]3(O)C(=O)C(C(N)=O)=C(O)[C@@H](N(C)C)[C@@H]3[C@@H](O)[C@@H]21 [Doxycycline] + CC(=O)S[C@@H]1CC2=CC(=O)CC[C@]2(C)[C@H]2CC[C@@]3(C)[C@@H](CC[C@@]34CCC(=O)O4)[C@H]12 [Spironolactone] | 0.239 |
| CN(C)[C@@H]1C(O)=C(C(N)=O)C(=O)[C@@]2(O)C(O)=C3C(=O)c4c(O)ccc(Cl)c4[C@@](C)(O)[C@H]3C[C@@H]12 [Clortetracycline] + OCc1cc(C(O)CNCCCCCCOCCCCc2ccccc2)ccc1O [Salmeterol] | -0.118 |
| CN(C)[C@@H]1C(O)=C(C(N)=O)C(=O)[C@@]2(O)C(O)=C3C(=O)c4c(O)ccc(Cl)c4[C@@](C)(O)[C@H]3C[C@@H]12 [Clortetracycline] + CC[C@H](c1ccc(O)cc1)[C@@H](CC)c1ccc(O)cc1 [Hexestrol] | -0.204 |
| COCCOC(=O)C1=C(C)NC(C)=C(C(=O)OC/C=C/c2ccccc2)C1c1cccc([N+](=O)[O-])c1 (configuration not stated) [Cilnidipine] + CN(C)C(=O)C(CCN1CCC(O)(c2ccc(Cl)cc2)CC1)(c1ccccc1)c1ccccc1 [Loperamide] | -0.32 |
| CC(C)c1c(C(=O)Nc2ccccc2)c(-c2ccccc2)c(-c2ccc(F)cc2)n1CC[C@@H](O)C[C@@H](O)CC(=O)O [Atorvastatin] + COc1cc(Cc2cnc(N)nc2N)cc(OC)c1OC [Trimethoprim] | 0.453 |
| CC(=O)Oc1cccc2c1C(=O)c1c(OC(C)=O)cc(C(=O)O)cc1C2=O [Diacerein] + CC(=O)NC[C@H]1CN(c2ccc(N3CCOCC3)c(F)c2)C(=O)O1 [Linezolid] | -0.29 |
| COCCOC(=O)C1=C(C)NC(C)=C(C(=O)OC/C=C/c2ccccc2)C1c1cccc([N+](=O)[O-])c1 (configuration not stated) [Cilnidipine] + CCC[C@@H]1C[C@@H](C(=O)N[C@@H]([C@H]2O[C@H](SC)[C@H](O)[C@@H](O)[C@H]2O)[C@H](C)Cl)N(C)C1 [Clindamycin] | -0.221 |
| O=C(O)c1cc(-c2ccc(F)cc2F)ccc1O [Diflunisal] + CC(=O)O[C@H]1C[C@@]2(C)[C@@H](C[C@@H](O)[C@H]3[C@@]4(C)CC[C@@H](O)[C@@H](C)[C@@H]4CC[C@@]32C)/C1=C(\CCC=C(C)C)C(=O)O [Fusidic acid] | 0.199 |
| C[C@H]1c2cccc(O)c2C(=O)C2=C(O)[C@]3(O)C(=O)C(C(N)=O)=C(O)[C@@H](N(C)C)[C@@H]3[C@@H](O)[C@@H]21 [Doxycycline] + CCCSc1nc(N[C@@H]2C[C@H]2c2ccc(F)c(F)c2)c2nnn([C@@H]3C[C@H](OCCO)[C@@H](O)[C@H]3O)c2n1 [Ticagrelor] | -0.272 |
| CC(C)c1c(C(=O)Nc2ccccc2)c(-c2ccccc2)c(-c2ccc(F)cc2)n1CC[C@@H](O)C[C@@H](O)CC(=O)O [Atorvastatin] + O=C(O[C@@H]1Cc2c(O)cc(O)cc2O[C@@H]1c1cc(O)c(O)c(O)c1)c1cc(O)c(O)c(O)c1 [EGCG] | -0.118 |

| SMILES | Bliss interaction score |
| --- | --- |
| COCCOC(=O)C1=C(C)NC(C)=C(C(=O)OC/C=C/c2ccccc2)C1c1cccc([N+](=O)[O-])c1 (configuration not stated) [Cilnidipine] + Cn1nnc(-c2ccc(-c3ccc(N4C[C@H](CO)OC4=O)cc3F)cn2)n1 [Tedizolid] | -0.429 |
| Cn1c(=O)c2c(ncn2C)n(C)c1=O [Caffeine] + CC[C@H]1OC(=O)[C@H](C)[C@@H](O[C@H]2C[C@@](C)(OC)[C@@H](O)[C@H](C)O2)[C@H](C)[C@@H](O[C@@H]2O[C@H](C)C[C@H](N(C)C)[C@H]2O)[C@](C)(OC)C[C@@H](C)C(=O)[C@H](C)[C@@H](O)[C@]1(C)O [Clarithromycin] | -0.357 |
| CC(=O)Oc1ccccc1C(=O)O [Acetylsalicylicacid] + CC(C)Cc1ccc(C(C)C(=O)O)cc1 [Ibuprofen] | -0.275 |
| Cn1c(=O)c2c(ncn2C)n(C)c1=O [Caffeine] + O=C(N[C@H](CO)[C@H](O)c1ccc([N+](=O)[O-])cc1)C(Cl)Cl [Chloramphenicol] | -0.3 |
| O=C(O)c1cn(C2CC2)c2cc(N3CCNCC3)c(F)cc2c1=O [Ciprofloxacin] + Cc1c(Cl)cccc1Nc1ccccc1C(=O)O [Tolfenamic] | -0.188 |
| CC(=O)Oc1cccc2c1C(=O)c1c(OC(C)=O)cc(C(=O)O)cc1C2=O [Diacerein] + C[C@H]1COc2c(N3CCN(C)CC3)c(F)cc3c(=O)c(C(=O)O)cn1c23 [Levofloxacin] | -0.237 |
| COCCOC(=O)C1=C(C)NC(C)=C(C(=O)OC/C=C/c2ccccc2)C1c1cccc([N+](=O)[O-])c1 (configuration not stated) [Cilnidipine] + CC[C@H]1OC(=O)[C@H](C)[C@@H](O[C@H]2C[C@@](C)(OC)[C@@H](O)[C@H](C)O2)[C@H](C)[C@@H](O[C@@H]2O[C@H](C)C[C@H](N(C)C)[C@H]2O)[C@](C)(OC)C[C@@H](C)C(=O)[C@H](C)[C@@H](O)[C@]1(C)O [Clarithromycin] | -0.196 |
| Cn1c(=O)c2c(ncn2C)n(C)c1=O [Caffeine] + CCC[C@@H]1C[C@@H](C(=O)N[C@@H]([C@H]2O[C@H](SC)[C@H](O)[C@@H](O)[C@H]2O)[C@@H](C)O)N(C)C1 [Lincomycin] | -0.292 |
| CC(=O)Oc1ccccc1C(=O)O [Acetylsalicylicacid] + C[C@]12CC[C@@H]3c4ccc(O)cc4CC[C@H]3[C@@H]1CC[C@@H]2O [Estradiol] | 0.162 |
| CC(C)c1c(C(=O)Nc2ccccc2)c(-c2ccccc2)c(-c2ccc(F)cc2)n1CC[C@@H](O)C[C@@H](O)CC(=O)O [Atorvastatin] + CO[C@@]12[C@H](COC(N)=O)C3=C(C(=O)C(C)=C(N)C3=O)N1C[C@@H]1N[C@@H]12 [MitomycinC] | 0.187 |
| CC(=O)Oc1ccccc1C(=O)O [Acetylsalicylicacid] + CCCCc1nc(Cl)c(CO)n1Cc1ccc(-c2ccccc2-c2nnn[nH]2)cc1 [Losartan] | 0.178 |
| CN(C)[C@@H]1C(O)=C(C(N)=O)C(=O)[C@@]2(O)C(O)=C3C(=O)c4c(O)ccc(Cl)c4[C@@](C)(O)[C@H]3C[C@@H]12 [Clortetracycline] + CC(=O)Oc1cccc2c1C(=O)c1c(OC(C)=O)cc(C(=O)O)cc1C2=O [Diacerein] | -0.344 |
| COc1cccc2c1C(=O)c1c(O)c3c(c(O)c1C2=O)C[C@@](O)(C(=O)CO)C[C@@H]3O[C@H]1C[C@H](N)[C@H](O)[C@H](C)O1 [Doxorubicin] + CCCSc1nc(N[C@@H]2C[C@H]2c2ccc(F)c(F)c2)c2nnn([C@@H]3C[C@H](OCCO)[C@@H](O)[C@H]3O)c2n1 [Ticagrelor] | -0.298 |
| Cn1c(=O)c2c(ncn2C)n(C)c1=O [Caffeine] + CCC[C@@H]1C[C@@H](C(=O)N[C@@H]([C@H]2O[C@H](SC)[C@H](O)[C@@H](O)[C@H]2O)[C@H](C)Cl)N(C)C1 [Clindamycin] | -0.251 |
| CN(C)[C@@H]1C(O)=C(C(N)=O)C(=O)[C@@]2(O)C(O)=C3C(=O)c4c(O)ccc(Cl)c4[C@@](C)(O)[C@H]3C[C@@H]12 [Clortetracycline] + C[C@]12CC[C@@H]3c4ccc(O)cc4CC[C@H]3[C@@H]1CC[C@@H]2O [Estradiol] | 0.237 |
| O=C(O)c1cc(-c2ccc(F)cc2F)ccc1O [Diflunisal] + CN(C)C(=O)C(CCN1CCC(O)(c2ccc(Cl)cc2)CC1)(c1ccccc1)c1ccccc1 [Loperamide] | 0.356 |
| CC(=O)Oc1ccccc1C(=O)O [Acetylsalicylicacid] + C=C1/C(=C\C=C2/CCC[C@]3(C)[C@@H]([C@H](C)CCCC(C)C)CC[C@@H]23)C[C@@H](O)C[C@@H]1O [Alfacalcidol] | -0.294 |
| CN(C)[C@@H]1C(O)=C(C(N)=O)C(=O)[C@@]2(O)C(O)=C3C(=O)c4c(O)ccc(Cl)c4[C@@](C)(O)[C@H]3C[C@@H]12 [Clortetracycline] + Cc1c(C)c2c(c(C)c1O)CCC(C)(COc1ccc(CC3SC(=O)NC3=O)cc1)O2 [Troglitazone] | -0.137 |

Same assay, conditions: main component drawn

| SMILES | Bliss interaction score |
| --- | --- |
| COCCOC(=O)C1=C(C)NC(C)=C(C(=O)OC/C=C/c2ccccc2)C1c1cccc([N+](=O)[O-])c1 (configuration not stated) [Cilnidipine] + CCC(C)C1C(=O)NC(=C)C(=O)NC(C(=O)NC(CSCC(C(=O)N1)NC(=O)/C(=C/C)/NC(=O)C(C(C)CC)N)C(=O)NC2C(SCC(NC(=O)CNC(=O)C3CCCN3C2=O)C(=O)NC(CCCCN)C(=O)NC4C(SCC(NC(=O)CNC(=O)C(NC(=O)C(NC(=O)C(NC(=O)CNC4=O)C)CC(C)C)CCSC)C(=O)NC(CC(=O)N)C(=O)NC(CCSC)C(=O)NC(CCCCN)C(=O)NC5C(SCC6C(=O)NC(C(=O)NC(CSC(C(C(=O)N6)NC(=O)C(NC5=O)C)C)C(=O)NC(CO)C(=O)NC(C(C)CC)C(=O)NC(CC7=CN=CN7)C(=O)NC(C(C)C)C(=O)NC(=C)C(=O)NC(CCCCN)C(=O)O)CC8=CN=CN8)C)C)C)CC(C)C [Nisin] | 0.156 |
